The record followed here is ChEMBL document CHEMBL1134196, “Oxo-piperazine derivatives of N-arylpiperazinones as inhibitors of farnesyltransferase” (Bioorg Med Chem Lett, 2001).

The subject of series [1] is Rat1. Briefly: Inhibition of RAT1 v-Ha-ras-transformed cell growth in soft agar. Format: functional. The note with it: Rattus norvegicus.
A short description of series [2]: Half life value of the compound. The following applies: rat. Format: ADME.
Series [3] relates to Rat1. Briefly: Inhibition of anchorage-dependent proliferation of RAT1 v-Ha-ras-transformed cells on poly(HEMA). Format: functional, cell-based. The note with it: Rattus norvegicus.
Series [4] can be described thus: Maximal plasma concentration required for pharmacokinetic data in dogs at dose of 1 mg/kg perorally. The note with it: dog, po. The arrangement: dose 1 mg/kg, route oral. Format: ADME, organism-based, Canis lupus familiaris.
Series [5] can be described thus: Partition coefficient (logP). Type of series: physicochemical. The note with it: octanol/water.
The species entered for a further series is Rattus norvegicus. Briefly: Concentration at which 80% cultured cells remain viable assessed by MTT staining. Format: functional.
Series [6] is described as follows: Pharmacokinetic data in dogs at dose of 1 mg/kg perorally, and the area under curve (AUC) was reported. Type of series: ADME, organism-based, Canis lupus familiaris. Also on record: dose 1 mg/kg, route oral. The note with it: dog, in vivo, po.
Series [7] addresses Protein farnesyltransferase (Homo sapiens, UniProt P49354+P49356). Briefly: Inhibition of [3H]FPP incorporation into recombinant Ras-CVIM by human farnesyl transferase. Type of series: protein-complex assay.
The target of series [8] is Geranylgeranyl transferase type I (Homo sapiens, UniProt P49354+P53609). Briefly: Inhibition of human geranylgeranyltransferase-1. Format: protein-complex assay.

Bounds are passed on as bounds.

`CCCC[C@H]1CN(c2cccc(C)c2C)C(=O)CN1Cc1cncn1Cc1ccc(C#N)cc1` came in with an IC90 in the series with Rat1 [1] of 1 µM. In series [2], this compound had a half-life of 36 min. The 50% inhibitory concentration (IC50) in the series on Rat1 [3] is 28 µM. This compound had a Cmax in series [4] of 0.14 µM. In series [5], this compound displayed a logP above 3.7. This compound registered an IC20 in the series listed under Rattus norvegicus of 50 µM. Besides, the AUC in series [6] was 0.15 µM·h.
`N#Cc1ccc(Cn2cncc2CN2CCN(c3cccc(Cl)c3)CC2)cc1` showed an IC90 in the series with Rat1 [1] of 1 µM. Also, in series [7], the IC50 came out at 250 µM. The logP in series [5] was above 3.4. This compound also yielded an IC20 in the series listed under Rattus norvegicus of 25 µM.
For the compound `N#Cc1ccc(Cn2cncc2CN2CCN(c3cccc(Cl)c3)CC2=O)cc1`, the 90% effect level in the series with Rat1 [1] (IC90) was put at 1 µM. The compound further showed a half-life in series [2] of 72 min. In addition, the IC50 in series [7] amounted to 100 µM. This compound also came in with a Cmax in series [4] of 3.14 µM. For the same compound, the logP in [5] stood at 2.51. In the series listed under Rattus norvegicus, this compound showed a concentration for an effect of 20% (IC20) above 100 µM. This compound displayed an AUC in series [6] of 8.58 µM·h.
In the case of `N#Cc1ccc(Cn2cncc2C(=O)N2CCN(c3cccc(Cl)c3)C(=O)C2)cc1`, the 90% effect concentration (IC90) in the series with Rat1 [1] worked out at 1 µM. Besides, the IC50 in [7] amounted to 33 µM. In addition, the IC20 in the series filed under Rattus norvegicus was above 100 µM.
Compound `Cc1cccc(N2CCN(Cc3cncn3Cc3ccc(C#N)cc3)CC2=O)c1C` displayed an IC90 in the series on Rat1 [1] of 1 µM. The compound further had a half-life in series [2] of 30 min. Moreover, the IC50 with Rat1 [3] worked out at 83 µM; in series [7], 11 µM. In addition, the concentration in series [4] peaked (Cmax) at 1.06 µM. Further, in series [5], the logP was found to be 2. For the same compound, in the series filed under Rattus norvegicus, it took 10 µM to reach the 20% level (IC20). In series [6], this compound yielded an AUC of 1.4 µM·h.
`Cc1cccc(N2CCN(Cc3cncn3Cc3ccc(C#N)cc3)C(=O)C2=O)c1C` registered an IC90 in the series with Rat1 [1] above 1 µM. This compound showed a half-life in series [2] of 60 min. Besides, the IC50 in [7] came out at 20 µM. Further, the concentration in series [4] peaked (Cmax) at 2.29 µM. Moreover, in series [5], the logP was determined as 1.11. This compound showed an IC20 in the series filed under Rattus norvegicus of 10 µM. In [6], this compound showed an AUC of 4.43 µM·h.
For the compound `N#Cc1ccc(Cn2cncc2C(=O)N2CCN(c3cccc(Cl)c3)CC2)cc1`, the 90% effect level in the series with Rat1 [1] (IC90) was put at 0.1 µM. The compound also registered a logP in [5] of 2.79. Moreover, in the series listed under Rattus norvegicus, the IC20 was above 100 µM.
Turning to `N#Cc1ccc(Cn2cncc2CN2CCN(c3ccccc3)C(=O)C2)cc1`, the values for the IC50 in series [8] and in series [7] were 8.7 µM and 5 µM, respectively. In series [5], this compound returned a logP of 1.32.
Compound `N#Cc1ccc(Cn2cncc2CN2CCN(c3cccc(Cl)c3)C(=O)C2=O)cc1` came in with an IC90 in the series with Rat1 [1] of 1 µM. This compound also had a half-life in series [2] of 132 min. Also, the IC50 in series [7] is 11 µM. Besides, in series [4], the Cmax amounted to 3.11 µM. Moreover, the logP in series [5] worked out at 1.24. The compound also showed an IC20 in the series listed under Rattus norvegicus above 100 µM. In series [6], this compound came in with an AUC of 12.5 µM·h.
Consider `CCCC[C@H]1CN(c2cccc(C)c2C)CC(=O)N1Cc1cncn1Cc1ccc(C#N)cc1`, for which the IC90 in the series on Rat1 [1] came to 10 µM. The half-life in [2] is 138 min. For the same compound, the IC50 in the series on Rat1 [3] is 2.51 µM; in series [7] it was 1.3 µM. The Cmax in series [4] worked out at 0.96 µM. Further, the logP in series [5] is above 3.5. In addition, the 20% effect level in the series filed under Rattus norvegicus (IC20) was put at 100 µM. The compound further returned an AUC in series [6] of 3.46 µM·h.
`N#Cc1ccc(Cn2cncc2CN2CCN(c3ccccc3)C(=O)C2=O)cc1`: the IC50 in series [8] was above 20 µM; in [7] it was 16 µM. In series [5], this compound gave a logP of 0.46.
In the series with Rat1 [1], `CCCC[C@H]1CN(c2cccc(C)c2C)C(=O)C(=O)N1Cc1cncn1Cc1ccc(C#N)cc1` returned an IC90 of 1 µM. In [2], the half-life was 54 min. For the same compound, the IC50 in the series on Rat1 [3] turned out to be 15 µM; in series [7] it was 3 µM. The compound also showed a Cmax in series [4] of 1.95 µM. This compound also returned a logP in series [5] of 3.3. In addition, the 20% effect concentration (IC20) in the series listed under Rattus norvegicus is 10 µM. This compound also had an AUC in series [6] of 4.25 µM·h.
For `N#Cc1ccc(Cn2cncc2CN2CC(=O)N(c3ccccc3)CC2=O)cc1`, the IC50 in series [7] stood at 950 µM. The log partition coefficient (logP) in series [5] was 0.55.
For `N#Cc1ccc(Cn2cncc2CN2CCN(c3cccc(Cl)c3)C(=O)C2)cc1` [L-778123 FREE BASE], in the series on Rat1 [1], the IC90 was 0.1 µM. Further, in series [2], the half-life is 47.4 min. Further, the concentration in series [4] peaked (Cmax) at 2.98 µM. Moreover, in series [5], the logP worked out at 2.11. In the series listed under Rattus norvegicus, this compound gave an IC20 above 100 µM. For the same compound, in series [6], the AUC was 5.3 µM·h.

A word on the IC90: it is the concentration at which the effect reaches the 90% level. A low value points to an effect from little substance. As a reminder, the half-life is the time in which the quantity being followed falls by half. A high value points to slow decline. Broadly, the IC50 is the concentration at which inhibition is half-maximal. In general, Cmax refers to the maximum level reached in the sampled fluid or tissue. In general, logP refers to the decadic logarithm of the partition coefficient of the neutral form, usually between octanol and water. By IC20 is commonly meant the point of the concentration-response curve where the effect stands at 20%. Low readings indicate greater potency, high ones weaker potency. A word on the AUC: it is the area under the concentration-time curve, a measure of exposure. A higher AUC goes with more exposure.
